These results are taken from ChEMBL document CHEMBL2203184, “Synthesis of novel triplet drugs with 1,3,5-trioxazatriquinane skeletons and their pharmacologies. 3: synthesis of novel triplet drugs with the bis(epoxymethano) or bis(dimethylepoxymethano) structure (double-capped triplet)” (Bioorg Med Chem Lett, 2012).

Test [1] in a line: Selectivity ratio of Ki for kappa opioid receptor in guinea pig cerebellum to Ki for mu opioid receptor in mouse whole brain without cerebellum.
A further test is filed under the species Mus musculus. Kind of test: Selectivity ratio of Ki for delta opioid receptor in mouse whole brain without cerebellum to Ki for mu opioid receptor in mouse whole brain without cerebellum.
The nature of test [2]: Selectivity ratio of Ki for mu opioid receptor in mouse whole brain without cerebellum to Ki for kappa opioid receptor in guinea pig cerebellum.
Test [3] has as its target Kappa-type opioid receptor (Cavia porcellus, UniProt P41144). Kind of test: Displacement of [3H]U-69,593 from kappa opioid receptor in guinea pig cerebellum. (Displacement assays read how much labelled ligand stays bound in the presence of the test substance.)
Test [4] has as its target Delta-type opioid receptor (Mus musculus, UniProt P32300). Kind of test: Displacement of [3H]DPDPE from delta opioid receptor in mouse whole brain without cerebellum.
In test [5] the target is Mu-type opioid receptor (Mus musculus, UniProt P42866). Kind of test: Displacement of [3H]DAMGO from mu opioid receptor in mouse whole brain without cerebellum.
Test [6] can be described thus: Selectivity ratio of Ki for delta opioid receptor in mouse whole brain without cerebellum to Ki for kappa opioid receptor in guinea pig cerebellum.
In test [7] the target is T1, Mu-type opioid receptor (Homo sapiens, UniProt P35372). Kind of test: Agonist activity at human mu opioid receptor expressed in CHO cells assessed as [35S]GTPgammaS binding after 2 hrs by liquid scintillation counting relative to DAMGO. It is filed as functional, cell-based. On the technique in general: GTPγS is a poorly hydrolysed GTP analogue; its binding reports G protein activation.

For test [8], the target named is T1, Mu-type opioid receptor. Kind of test: Agonist activity at human mu opioid receptor expressed in CHO cells assessed as [35S]GTPgammaS binding after 2 hrs by liquid scintillation counting. The class given is functional, cell-based.
The target in test [9] is T2, Kappa-type opioid receptor (Homo sapiens, UniProt P41145). The test can be described thus: Agonist activity at human kappa opioid receptor expressed in CHO cells assessed as [35S]GTPgammaS binding after 2 hrs by liquid scintillation counting relative to U-69,593. The class given is functional, cell-based.
Test [10] addresses T2, Kappa-type opioid receptor. Kind of test: Agonist activity at human kappa opioid receptor expressed in CHO cells assessed as [35S]GTPgammaS binding after 2 hrs by liquid scintillation counting. The class given is functional, cell-based.

Chain of Delta-type opioid receptor (P32300 whole entry): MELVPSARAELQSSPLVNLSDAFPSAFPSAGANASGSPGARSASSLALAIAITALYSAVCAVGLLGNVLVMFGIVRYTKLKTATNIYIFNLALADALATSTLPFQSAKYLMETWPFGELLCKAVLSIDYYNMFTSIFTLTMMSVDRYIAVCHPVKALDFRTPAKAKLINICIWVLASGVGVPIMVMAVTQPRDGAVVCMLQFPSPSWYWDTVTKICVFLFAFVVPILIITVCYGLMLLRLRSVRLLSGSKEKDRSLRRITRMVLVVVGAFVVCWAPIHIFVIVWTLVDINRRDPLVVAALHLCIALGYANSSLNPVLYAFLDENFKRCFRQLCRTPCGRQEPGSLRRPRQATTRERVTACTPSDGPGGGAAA
Chain of Mu-type opioid receptor (Mus musculus, UniProt P42866) (P42866 whole entry): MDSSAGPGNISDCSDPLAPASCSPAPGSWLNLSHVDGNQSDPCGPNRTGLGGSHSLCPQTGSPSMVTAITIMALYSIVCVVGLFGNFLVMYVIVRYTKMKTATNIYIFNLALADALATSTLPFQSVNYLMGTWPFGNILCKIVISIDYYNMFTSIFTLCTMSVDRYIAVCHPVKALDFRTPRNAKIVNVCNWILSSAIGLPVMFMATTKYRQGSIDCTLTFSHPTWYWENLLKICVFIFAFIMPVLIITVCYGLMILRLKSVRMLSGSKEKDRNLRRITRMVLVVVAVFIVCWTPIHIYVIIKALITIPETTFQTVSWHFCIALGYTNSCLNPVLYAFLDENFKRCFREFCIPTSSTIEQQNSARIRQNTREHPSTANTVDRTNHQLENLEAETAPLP
Chain of Kappa-type opioid receptor (Cavia porcellus, UniProt P41144) (P41144 whole entry): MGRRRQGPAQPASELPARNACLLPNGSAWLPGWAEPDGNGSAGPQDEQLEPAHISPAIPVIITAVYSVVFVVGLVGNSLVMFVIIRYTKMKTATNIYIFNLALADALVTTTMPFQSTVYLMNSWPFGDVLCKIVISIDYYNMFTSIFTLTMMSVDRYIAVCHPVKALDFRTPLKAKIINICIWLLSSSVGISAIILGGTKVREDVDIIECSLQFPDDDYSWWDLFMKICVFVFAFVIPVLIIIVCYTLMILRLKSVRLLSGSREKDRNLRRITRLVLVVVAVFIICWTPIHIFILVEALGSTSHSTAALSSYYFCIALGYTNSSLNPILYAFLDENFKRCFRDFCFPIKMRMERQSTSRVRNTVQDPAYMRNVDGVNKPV
T2 sequence (P41145 whole entry): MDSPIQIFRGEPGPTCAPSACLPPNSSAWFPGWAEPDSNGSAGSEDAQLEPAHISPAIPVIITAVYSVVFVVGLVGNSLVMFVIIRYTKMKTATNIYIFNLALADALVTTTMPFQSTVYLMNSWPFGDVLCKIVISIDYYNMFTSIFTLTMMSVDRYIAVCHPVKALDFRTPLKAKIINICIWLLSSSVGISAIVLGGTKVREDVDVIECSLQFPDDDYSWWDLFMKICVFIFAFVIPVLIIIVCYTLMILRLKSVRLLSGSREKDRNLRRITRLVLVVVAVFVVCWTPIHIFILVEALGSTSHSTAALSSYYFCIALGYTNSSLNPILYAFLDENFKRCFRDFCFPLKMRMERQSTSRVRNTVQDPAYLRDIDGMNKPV
T1 sequence (P35372 whole entry): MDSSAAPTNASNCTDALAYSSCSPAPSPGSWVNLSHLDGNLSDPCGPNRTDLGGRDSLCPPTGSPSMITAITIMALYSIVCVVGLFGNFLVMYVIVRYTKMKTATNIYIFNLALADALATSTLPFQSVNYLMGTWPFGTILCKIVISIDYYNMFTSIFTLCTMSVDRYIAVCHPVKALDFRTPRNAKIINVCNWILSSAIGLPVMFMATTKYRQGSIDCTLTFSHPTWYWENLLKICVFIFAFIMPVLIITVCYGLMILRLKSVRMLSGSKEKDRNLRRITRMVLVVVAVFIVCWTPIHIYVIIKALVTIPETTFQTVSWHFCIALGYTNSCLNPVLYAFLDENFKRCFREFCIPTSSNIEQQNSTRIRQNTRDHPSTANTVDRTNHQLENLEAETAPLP

One may read the Ki as a measure of affinity in units of concentration, obtained from inhibition or displacement. As for `CC(C)CN1CC[C@]23c4c5ccc(O)c4O[C@H]2[C@]2(CC[C@@]3(O)[C@H]1C5)O[C@H]1N3[C@H](OC1(C)C)C(C)(C)O[C@@H]32`, the results for the Ratio Ki (in test [1]; in the test listed under Mus musculus; in test [2]) were over 11.4, over 11.4 and under 0.088, respectively. The inhibition constant (Ki) in test [3] was over 1000 nM; in test [4], over 1000 nM; at Mu-type opioid receptor [5], 88.1 nM.

Take `CC(C)CN1CC[C@]23c4c5ccc(O)c4O[C@H]2[C@]2(CC[C@@]3(O)[C@H]1C5)O[C@H]1CO[C@H]3CO[C@@H]2N31`: the Ratio Ki in test [1] is over 11.7; in the test listed under Mus musculus it was 9.89; in [6] it was under 0.848; in [2], under 0.086. Also, the inhibitory constant (Ki) in test [3] is over 1000 nM; in test [4] it was 848 nM; at Mu-type opioid receptor [5], 85.7 nM.

One may read the Emax as the greatest response seen or fitted, relative to the assay's reference. As usually defined, the EC50 is the concentration that produces a half-maximal response. Turning to `CN1CC[C@]23c4c5ccc(O)c4O[C@H]2[C@]2(CC[C@@]3(O)[C@H]1C5)O[C@H]1N3[C@H](OC1(C)C)C(C)(C)O[C@@H]32`, the Emax on Mu-type opioid receptor [7] was found to be 79.1%. Further, on Mu-type opioid receptor [8], the concentration giving a half-maximal response (EC50) amounted to 6 nM. For the same molecule, the Ratio Ki in [1] was over 541; in the test filed under Mus musculus, 42.8; in [6] it was under 0.079; in test [2], under 0.0019. Besides, the Ki is over 1000 nM in test [3], 79.1 nM in [4] and 1.85 nM at Mu-type opioid receptor [5].

As to `Oc1ccc2c3c1O[C@H]1[C@]4(CC[C@@]5(O)[C@@H](C2)N(Cc2ccccc2)CC[C@]315)O[C@H]1CO[C@H]2CO[C@@H]4N21`, the Ratio Ki in test [1] was over 1.72; in the test listed under Mus musculus, 0.145; in test [6], under 0.084; in test [2], under 0.581. Moreover, the Ki is over 1000 nM in [3], 84 nM in test [4] and 581 nM on Mu-type opioid receptor [5].

Turning to `Oc1ccc2c3c1O[C@H]1[C@]4(CC[C@@]5(O)[C@@H](C2)N(CC2CC2)CC[C@]315)O[C@H]1CO[C@H]2CO[C@@H]4N21`, the Ratio Ki in test [1] amounted to 0.869; in the test listed under Mus musculus, 11.5; in [6] it was 13.2; in test [2] it was 1.15. Further, the inhibition constant Ki in [3] came to 5.95 nM; in test [4] it was 78.6 nM; at Mu-type opioid receptor [5], 6.85 nM.

In the case of `Oc1ccc2c3c1O[C@H]1[C@]4(CC[C@@]5(O)[C@@H](C2)N(CC2CC2)CC[C@]315)O[C@@H]1CO[C@@H]2CO[C@H]4N21`, in test [9], the Emax was 70%. Besides, in test [10], the EC50 was determined as 25 nM. Besides, the Ratio Ki worked out at 0.446 in test [1], 11.5 in the test listed under Mus musculus, 25.9 in test [6] and 2.24 in test [2]. In addition, the Ki was 3.86 nM in test [3], 99.8 nM in test [4] and 8.65 nM at Mu-type opioid receptor [5].

Turning to `CC(C)CN1CC[C@]23c4c5ccc(O)c4O[C@H]2[C@]2(CC[C@@]3(O)[C@H]1C5)O[C@@H]1N3[C@@H](OC1(C)C)C(C)(C)O[C@H]32`, the Ratio Ki is over 7.46 in [1], 4.04 in the test listed under Mus musculus, under 0.541 in [6] and under 0.134 in test [2]. Further, the Ki is over 1000 nM in test [3], 541 nM in [4] and 134 nM on Mu-type opioid receptor [5].

For `CC1(C)O[C@H]2N3[C@@H]1O[C@]1(CC[C@@]4(O)[C@H]5Cc6ccc(O)c7c6[C@@]4(CCN5CC4CC4)[C@H]1O7)[C@H]3OC2(C)C`, the Ratio Ki in [1] worked out at 3.69; in the test filed under Mus musculus it was 33.6; in test [6], 9.1; in test [2] it was 0.271. Moreover, the Ki in [3] worked out at 7.89 nM; in test [4], 71.8 nM; on Mu-type opioid receptor [5], 2.14 nM.

For `CC(C)CN1CC[C@]23c4c5ccc(O)c4O[C@H]2[C@]2(CC[C@@]3(O)[C@H]1C5)O[C@@H]1CO[C@@H]3CO[C@H]2N31`, the Ratio Ki in [1] was over 10.1; in the test filed under Mus musculus it was 0.798; in test [6], under 0.079; in [2] it was under 0.099. The figures for the Ki (in test [3]; in test [4]; at Mu-type opioid receptor [5]) were over 1000 nM, 79.1 nM and 99.1 nM, respectively.

Take `CC1(C)O[C@H]2N3[C@@H]1O[C@]1(CC[C@@]4(O)[C@H]5Cc6ccc(O)c7c6[C@@]4(CCN5Cc4ccccc4)[C@H]1O7)[C@H]3OC2(C)C`: the Ratio Ki in test [1] was over 2.22; in the test listed under Mus musculus, over 2.22; in test [2], under 0.45. In addition, the inhibitory constant (Ki) was over 1000 nM in test [3], over 1000 nM in test [4] and 450 nM on Mu-type opioid receptor [5].

On to `CC1(C)O[C@@H]2N3[C@H]1O[C@]1(CC[C@@]4(O)[C@H]5Cc6ccc(O)c7c6[C@@]4(CCN5Cc4ccccc4)[C@H]1O7)[C@@H]3OC2(C)C`, for which the Ki (in [3]; in test [4]; on Mu-type opioid receptor [5]) was over 1000 nM in each case.

Take `CN1CC[C@]23c4c5ccc(O)c4O[C@H]2[C@]2(CC[C@@]3(O)[C@H]1C5)O[C@H]1CO[C@H]3CO[C@@H]2N31`: the Ratio Ki in [1] was over 420; in the test filed under Mus musculus, 55.9; in [6], under 0.133; in test [2] it was under 0.0024. The results for the Ki (in test [3]; in test [4]; at Mu-type opioid receptor [5]) were over 1000 nM, 133 nM and 2.38 nM, respectively.

Consider `Oc1ccc2c3c1O[C@H]1[C@]4(CC[C@@]5(O)[C@@H](C2)N(Cc2ccccc2)CC[C@]315)O[C@@H]1CO[C@@H]2CO[C@H]4N21`, for which the inhibition constant (Ki) (in [3]; in [4]; on Mu-type opioid receptor [5]) was over 1000 nM each time.

For `CC1(C)O[C@@H]2N3[C@H]1O[C@]1(CC[C@@]4(O)[C@H]5Cc6ccc(O)c7c6[C@@]4(CCN5CC4CC4)[C@H]1O7)[C@@H]3OC2(C)C`, the Ratio Ki came to 4.52 in test [1], 4.11 in the test listed under Mus musculus, 0.909 in [6] and 0.221 in [2]. The inhibitory constant (Ki) was 24.2 nM in [3], 22 nM in test [4] and 5.35 nM on Mu-type opioid receptor [5].

`CN1CC[C@]23c4c5ccc(O)c4O[C@H]2[C@]2(CC[C@@]3(O)[C@H]1C5)O[C@@H]1CO[C@@H]3CO[C@H]2N31`: the Ratio Ki amounted to 46.6 in test [1], 73.1 in the test filed under Mus musculus, 1.57 in test [6] and 0.0214 in [2]. The results for the Ki (in test [3]; in test [4]; at Mu-type opioid receptor [5]) were 109 nM, 171 nM and 2.34 nM, respectively.

Take `CN1CC[C@]23c4c5ccc(O)c4O[C@H]2[C@]2(CC[C@@]3(O)[C@H]1C5)O[C@@H]1N3[C@@H](OC1(C)C)C(C)(C)O[C@H]32`: the Ratio Ki in [1] is over 375; in the test listed under Mus musculus, 3.66; in test [6], under 0.0098; in [2] it was under 0.0027. Also, the Ki in test [3] is over 1000 nM; in test [4], 9.78 nM; at Mu-type opioid receptor [5], 2.67 nM.
